Measured values reported in patent US20160355530A1, “HEPATITIS C INHIBITORS AND USES THEREOF” (AbbVie Inc., priority 2010, published 2016).
Like-named read-outs stand apart in the source and are kept apart here.

How the values were obtained:
[1] = test system: chimeric replicon with genotype 3a NS5B; assay: microbe, parasite or virus in culture; type: cell-based, HCV genotype 3a; details: Hepatitis C virus, read-out: 3a chimera 5% FBS EC50
[2] = biological target: T1, HCV NS5B polymerase 1b BK strain (Hepatitis C virus genotype 1b, UniProt P26663); assay: HCV NS5B polymerase enzymatic inhibition assay, strain 1b BK; type: biochemical; details: enzyme, strain 1b BK; read-out: HCV Polymerase Strain 1b BK IC50
T1 construct: six-histidine tag; made in house; host or cells: E. coli
T1 sequence (P26663 2420-2989): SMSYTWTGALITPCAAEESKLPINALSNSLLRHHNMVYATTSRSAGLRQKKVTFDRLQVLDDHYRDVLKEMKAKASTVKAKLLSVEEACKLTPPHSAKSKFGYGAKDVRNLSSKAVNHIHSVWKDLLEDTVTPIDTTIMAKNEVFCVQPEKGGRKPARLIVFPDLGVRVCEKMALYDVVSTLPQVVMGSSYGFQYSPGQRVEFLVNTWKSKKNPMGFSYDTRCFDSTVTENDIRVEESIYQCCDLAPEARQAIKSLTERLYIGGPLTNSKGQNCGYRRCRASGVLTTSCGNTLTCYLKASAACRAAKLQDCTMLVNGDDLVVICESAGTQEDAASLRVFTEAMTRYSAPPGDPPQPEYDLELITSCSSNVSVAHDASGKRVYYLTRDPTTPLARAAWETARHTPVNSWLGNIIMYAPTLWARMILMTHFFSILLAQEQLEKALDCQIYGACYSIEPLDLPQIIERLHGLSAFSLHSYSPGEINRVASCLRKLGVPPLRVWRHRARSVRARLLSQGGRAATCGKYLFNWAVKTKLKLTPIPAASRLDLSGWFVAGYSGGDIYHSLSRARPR
Method in brief: (§1)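 Recombinant NS5B (residues 1–570, His-tagged, E. coli-expressed) copied 5 nM of a 2.1 kb HCV 1b negative-strand 3′-end RNA template with 20 μM CTP, 20 μM ATP and 0.284 μM [3H]UTP for 3 h at 30 °C. Spermine-precipitated RNA was filter-captured and counted, and IC50 was fitted by nonlinear regression.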

[3] = test system: chimeric replicon with 2a-J6CF-derived NS5B; assay: microbe, parasite or virus in culture; type: cell-based, HCV genotype 2a; details: Hepatitis C virus, read-out: 2a chimera 5% FBS EC50
[4] = test system: chimeric replicon with genotype 4a NS5B; assay: microbe, parasite or virus in culture; type: cell-based, HCV genotype 4a; details: Hepatitis C virus, read-out: 4a chimera 5% FBS EC50
[5] = test system: chimeric replicon with genotype 2b NS5B; assay: microbe, parasite or virus in culture; type: cell-based, HCV genotype 2b; details: Hepatitis C virus, read-out: 2b chimera 5% FBS EC50
[6] = test system: HCV 1a-H77 subgenomic replicon; assay: microbe, parasite or virus in culture; type: cell-based, HCV genotype 1a; details: Hepatitis C virus, stable replicon
[7] = test system: HCV 1a-H77-C316Y transient subgenomic replicon in Huh-7 derived cell line; assay: microbe, parasite or virus in culture; type: cell-based, HCV genotype 1a; details: for EC50: Hepatitis C virus, Huh-7, read-out: Transient Replicon 1a H77-C316Y 5% FBS EC50; for Transient Replicon Fold Resistance C316Y/1a: ratio of transient replicon EC50s, C316Y / 1a H77
Method in brief: (§2)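 Subgenomic replicon RNA (no Neo gene) electroporated into Huh-7-derived cells, plated at 5×10^3 cells/well; a 4 h plate gauged transfection efficiency. Cells exposed to 3-fold compound dilutions (0.5% DMSO) for 4 days at 37° C, then lysed for luciferase readout; EC50 calculated.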

[8] = test system: HCV 1a-H77 transient subgenomic replicon in Huh-7 derived cell line; assay: microbe, parasite or virus in culture; type: cell-based, HCV genotype 1a; details: Hepatitis C virus, Huh-7; transient replicon, 5% FBS; read-out: Transient Replicon 1a H77 5% FBS EC50
Method in brief: as §2

[9] = test system: HCV 1b-BB7 subgenomic replicon; assay: microbe, parasite or virus in culture; type: cell-based, HCV genotype 1b; details: Hepatitis C virus, stable replicon
[10] = test system: HCV NS5B polymerase 1a-H77-C316Y; assay: biochemical; parameters: species or system HCV genotype 1a; details: ratio of enzyme IC50s, 1a H77-C316Y / 1a H77
Method in brief: as §1

[11] = biological target: T2, HCV NS5B polymerase 1a-H77-C316Y (Hepatitis C virus genotype 1a, UniProt P27958, C2736Y); assay: biochemical; parameters: species or system HCV genotype 1a
T2 construct: six-histidine tag; made in house; host or cells: E. coli
T2 sequence (P27958 2421-2990 C2736Y): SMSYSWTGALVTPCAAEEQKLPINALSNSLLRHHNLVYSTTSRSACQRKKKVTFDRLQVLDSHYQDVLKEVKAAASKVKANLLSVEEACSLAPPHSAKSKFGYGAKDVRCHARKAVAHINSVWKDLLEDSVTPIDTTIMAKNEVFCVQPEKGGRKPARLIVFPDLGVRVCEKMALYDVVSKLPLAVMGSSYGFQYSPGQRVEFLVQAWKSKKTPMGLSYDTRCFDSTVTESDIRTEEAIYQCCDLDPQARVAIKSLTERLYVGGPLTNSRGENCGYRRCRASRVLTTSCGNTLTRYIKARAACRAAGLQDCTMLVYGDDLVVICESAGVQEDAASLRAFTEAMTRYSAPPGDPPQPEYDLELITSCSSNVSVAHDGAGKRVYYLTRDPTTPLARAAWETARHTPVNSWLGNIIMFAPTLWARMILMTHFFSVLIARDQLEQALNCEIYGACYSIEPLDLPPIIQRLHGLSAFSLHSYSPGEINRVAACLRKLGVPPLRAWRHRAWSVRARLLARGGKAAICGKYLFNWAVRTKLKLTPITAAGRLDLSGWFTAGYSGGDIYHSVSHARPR
Method in brief: as §1

[12] = biological target: T3, HCV NS5B polymerase 1a-H77 (Hepatitis C virus genotype 1a, UniProt P27958); assay: biochemical; parameters: species or system HCV genotype 1a; details: enzyme, strain 1a H77; read-out: HCV Polymerase Strain 1a H77 IC50
T3 construct: six-histidine tag; made in house; host or cells: E. coli
T3 sequence (P27958 2421-2990): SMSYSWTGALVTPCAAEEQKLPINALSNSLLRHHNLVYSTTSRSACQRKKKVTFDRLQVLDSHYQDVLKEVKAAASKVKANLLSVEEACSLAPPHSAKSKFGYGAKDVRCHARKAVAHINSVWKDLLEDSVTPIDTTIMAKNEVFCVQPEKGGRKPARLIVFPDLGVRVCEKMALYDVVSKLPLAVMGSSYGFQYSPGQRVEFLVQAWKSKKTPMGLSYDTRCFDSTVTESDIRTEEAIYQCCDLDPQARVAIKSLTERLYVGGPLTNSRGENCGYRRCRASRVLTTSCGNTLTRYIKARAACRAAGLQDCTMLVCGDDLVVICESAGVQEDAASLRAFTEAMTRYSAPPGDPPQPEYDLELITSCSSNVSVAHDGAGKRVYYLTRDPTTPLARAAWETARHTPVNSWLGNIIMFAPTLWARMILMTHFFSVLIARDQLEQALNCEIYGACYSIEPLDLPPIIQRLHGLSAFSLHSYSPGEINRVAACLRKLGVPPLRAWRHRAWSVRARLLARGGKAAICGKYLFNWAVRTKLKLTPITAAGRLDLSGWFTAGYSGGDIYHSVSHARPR
Method in brief: as §1

[13] = 5% FBS, absence of human plasma, read-out: Stable Replicon 1a H77 5% FBS EC50
[14] = strain 1a H77, 5% FBS + 40% human plasma, read-out: 1a H77 5% FBS + 40% Human Plasma EC50
[15] = strain 1a H77, 5% FBS, no human plasma, read-out: 1a H77 5% FBS EC50
[16] = strain 1a H77, 5% FBS, read-out: 1a H77 5% FBS EC50
[17] = strain 1b BB7, 5% FBS + 40% human plasma, read-out: 1b BB7 5% FBS + 40% Human Plasma EC50
[18] = strain 1b BB7, 5% FBS, no human plasma, read-out: 1b BB7 5% FBS EC50
[19] = strain 1b BB7, 5% FBS, read-out: 1b BB7 5% FBS EC50

CS(=O)(=O)CCCCN(c1cc2oc(-c3ccc(F)cc3)c(C3=NOCN3)c2cc1C1CC1)S(C)(=O)=O [Example 148, N-[5-cyclopropyl-3-(4,5-dihydro-1,2,4-oxadiazol-3-yl)-2-(4-fluorophenyl)-1-benzofuran-6-yl]-N-[4-(methylsulfonyl)butyl]methanesulfonamide]
EC50 [1]: 8.2 nM
IC50 [2]: 6 nM
EC50 [3]: 45.8 nM
EC50 [4]: 39.7 nM
EC50 [5]: 32 nM
EC50 [6, 13]: 4.1 nM
EC50 [6, 14]: 1290 nM
EC50 [6, 15]: 4.1 nM
EC50 [6, 16]: 4.1 nM
EC50 [7]: 109 nM
Transient Replicon Fold Resistance C316Y/1a [7]: 21 fold
EC50 [8]: 5.2 nM
EC50 [9, 17]: 688 nM
EC50 [9, 18]: 4 nM
EC50 [9, 19]: 4 nM
C316Y/1a Fold Resistance [10]: 8 fold
IC50 [11]: 30 nM
IC50 [12]: 3.9 nM

CS(=O)(=O)N(CCC1CCS(=O)(=O)C1)c1cc2oc(-c3ccc(F)cc3)c(C3=NOCN3)c2cc1C1CC1 (stereo not drawn) [Example 149, N-[5-cyclopropyl-3-(4,5-dihydro-1,2,4-oxadiazol-3-yl)-2-(4-fluorophenyl)-1-benzofuran-6-yl]-N-[2-(1,1-dioxidotetrahydrothiophen-3-yl)ethyl]methanesulfonamide]
EC50 [1]: 7 nM
IC50 [2]: 9 nM
EC50 [3]: 54 nM
EC50 [4]: 21 nM
EC50 [5]: 34 nM
EC50 [6, 13]: 8.8 nM
EC50 [6, 14]: 1020 nM
EC50 [6, 15]: 8.8 nM
EC50 [6, 16]: 8.8 nM
EC50 [7]: 124 nM
Transient Replicon Fold Resistance C316Y/1a [7]: 17 fold
EC50 [8]: 7.3 nM
EC50 [9, 17]: 643 nM
EC50 [9, 18]: 4 nM
EC50 [9, 19]: 4 nM
C316Y/1a Fold Resistance [10]: 12 fold
IC50 [11]: 41 nM
IC50 [12]: 3.5 nM

CC(C)CCN(c1cc2oc(-c3ccc(F)cc3)c(C3=NOCN3)c2cc1C1CC1)S(C)(=O)=O [Example 156, N-[5-cyclopropyl-3-(4,5-dihydro-1,2,4-oxadiazol-3-yl)-2-(4-fluorophenyl)-1-benzofuran-6-yl]-N-(3-methylbutyl)methanesulfonamide]
EC50 [1]: 65.1 nM
IC50 [2]: 27 nM
EC50 [3]: 718 nM
EC50 [4]: 623 nM
EC50 [5]: 893 nM
EC50 [6, 13]: 41.8 nM
EC50 [6, 14]: 2300 nM
EC50 [6, 15]: 41.8 nM
EC50 [6, 16]: 41.8 nM
EC50 [7]: 370 nM
Transient Replicon Fold Resistance C316Y/1a [7]: 13 fold
EC50 [8]: 29.1 nM
EC50 [9, 17]: 2980 nM
EC50 [9, 18]: 70.9 nM
EC50 [9, 19]: 70.9 nM
C316Y/1a Fold Resistance [10]: 5 fold
IC50 [11]: 34 nM
IC50 [12]: 6.3 nM

CS(=O)(=O)N(CCCC(=O)O)c1cc2oc(-c3ccc(F)cc3)c(C3=NOCN3)c2cc1C1CC1 [Example 157, 4-{[5-cyclopropyl-3-(4,5-dihydro-1,2,4-oxadiazol-3-yl)-2-(4-fluorophenyl)-1-benzofuran-6-yl](methylsulfonyl)amino}butanoic acid]
EC50 [1]: 108 nM
IC50 [2]: 16 nM
EC50 [3]: 1000 nM
EC50 [4]: > 1000 nM
EC50 [5]: 1000 nM
EC50 [6, 13]: 109 nM
EC50 [6, 14]: 2790 nM
EC50 [6, 15]: 109 nM
EC50 [6, 16]: 109 nM
EC50 [7]: 6890 nM
Transient Replicon Fold Resistance C316Y/1a [7]: 62 fold
EC50 [8]: 111 nM
EC50 [9, 17]: 2460 nM
EC50 [9, 18]: 94.2 nM
EC50 [9, 19]: 94.2 nM
C316Y/1a Fold Resistance [10]: 11 fold
IC50 [11]: 54 nM
IC50 [12]: 5 nM

Cc1cnc(-c2c(-c3ccc(F)cc3)oc3cc(N(CCC(C)C)S(C)(=O)=O)c(C4CC4)cc23)[nH]1 [Example 172, N-[5-cyclopropyl-2-(4-fluorophenyl)-3-(5-methyl-1H-imidazol-2-yl)-1-benzofuran-6-yl]-N-(3-methylbutyl)methanesulfonamide]
EC50 [1]: 233 nM
IC50 [2]: 179 nM
EC50 [3]: 1000 nM
EC50 [4]: > 1000 nM
EC50 [5]: 1000 nM
EC50 [6, 13]: 67.4 nM
EC50 [6, 14]: 1220 nM
EC50 [6, 15]: 67.4 nM
EC50 [6, 16]: 67.4 nM
EC50 [7]: 103 nM
Transient Replicon Fold Resistance C316Y/1a [7]: 3 fold
EC50 [8]: 40.4 nM
EC50 [9, 17]: 1130 nM
EC50 [9, 18]: 111 nM
EC50 [9, 19]: 111 nM
C316Y/1a Fold Resistance [10]: 7 fold
IC50 [11]: 87 nM
IC50 [12]: 13.3 nM

CS(=O)(=O)Nc1cc2oc(-c3ccc(F)cc3)c(C3=NOCN3)c2cc1C1CC1 [Example 173, N-[5-cyclopropyl-3-(4,5-dihydro-1,2,4-oxadiazol-3-yl)-2-(4-fluorophenyl)-1-benzofuran-6-yl]methanesulfonamide]
EC50 [1]: 146 nM
IC50 [2]: 86 nM
EC50 [3]: 1000 nM
EC50 [4]: > 1000 nM
EC50 [5]: 1000 nM
EC50 [6, 13]: 809 nM
EC50 [6, 14]: 9720 nM
EC50 [6, 15]: 809 nM
EC50 [6, 16]: 809 nM
EC50 [7]: 10000 nM
Transient Replicon Fold Resistance C316Y/1a [7]: 10 fold
EC50 [8]: 1000 nM
EC50 [9, 17]: 5060 nM
EC50 [9, 18]: 301 nM
EC50 [9, 19]: 301 nM
C316Y/1a Fold Resistance [10]: 198 fold
IC50 [11]: 1400 nM
IC50 [12]: 7.1 nM

Cc1c[nH]c(-c2c(-c3ccc(F)cc3)oc3cc(N(CCCCO)S(C)(=O)=O)c(C4CC4)cc23)n1 [Example 187, N-[5-cyclopropyl-2-(4-fluorophenyl)-3-(4-methyl-1H-imidazol-2-yl)-1-benzofuran-6-yl]-N-(4-hydroxybutyl)methanesulfonamide]
EC50 [1]: 91.7 nM
IC50 [2]: 168 nM
EC50 [3]: 703 nM
EC50 [4]: > 1000 nM
EC50 [5]: 1000 nM
EC50 [6, 13]: 41.9 nM
EC50 [6, 14]: 409 nM
EC50 [6, 15]: 41.9 nM
EC50 [6, 16]: 41.9 nM
EC50 [7]: 128 nM
Transient Replicon Fold Resistance C316Y/1a [7]: 4 fold
EC50 [8]: 28.9 nM
EC50 [9, 17]: 244 nM
EC50 [9, 18]: 63.2 nM
EC50 [9, 19]: 63.2 nM
C316Y/1a Fold Resistance [10]: 6 fold
IC50 [11]: 159 nM
IC50 [12]: 25.8 nM

Cc1c[nH]c(-c2c(-c3ccc(F)cc3)oc3cc(N(CCO)S(C)(=O)=O)c(C4CC4)cc23)n1 [Example 189, N-[5-cyclopropyl-2-(4-fluorophenyl)-3-(4-methyl-1H-imidazol-2-yl)-1-benzofuran-6-yl]-N-(2-hydroxyethyl)methanesulfonamide]
EC50 [1]: 231 nM
IC50 [2]: 470 nM
EC50 [3]: 1050 nM
EC50 [4]: 2940 nM
EC50 [5]: 1860 nM
EC50 [6, 13]: 163 nM
EC50 [6, 14]: 774 nM
EC50 [6, 15]: 163 nM
EC50 [6, 16]: 163 nM
EC50 [7]: 326 nM
Transient Replicon Fold Resistance C316Y/1a [7]: 2 fold
EC50 [8]: 139 nM
EC50 [9, 17]: 445 nM
EC50 [9, 18]: 114 nM
EC50 [9, 19]: 114 nM
C316Y/1a Fold Resistance [10]: 18 fold
IC50 [11]: 461 nM
IC50 [12]: 25.5 nM
